# Measurements taken from US4575487A, “Method for determination of transglucosidase” (Miles Laboratories, Inc., priority 1983, dated 1986).
# What was measured:
# [1] = test system: amylolytic enzymes; conditions: J. Jap. Soc. Starch Sci., 27, 114-119 (1980); cited from earlier work
# [2] = target: glucoamylase (Aspergillus niger, UniProt P69328); assay: Effect of acarbose on glucoamylase activity (remaining activity with maltose); format: biochemical; conditions: for Inhibition (%) glucoamylase: one unit of glucoamylase
# From the text: (§1) A particularly effective, selective inhibitor is acarbose which is identified by J. Jap. Soc. […] The difference in the effect of acarbose on glucoamylase and transglucosidase has led to the development of a sensitive assay for transglucosidase in the presence of glucoamylase. To determine the level of acarbose needed to inhibit glucoamylase completely, purified glucoamylase equivalent to one DU (the amount that liberates one gram of reducing sugar per hour under the conditions of the assay published in U.S. Pat. No. 3,249,514) is treated with graded amounts of acarbose and the remaining activity measured by incubation with maltose under appropriate conditions, for example, at pH 4.2 and 37° C. with a maltose concentration of 10%. The extent of inhibition of glucoamylase activity is increased with increasing concentrations of acarbose up to 50 μg acarbose per DU enzyme and above, such concentrations causing 100% inhibition. In order to determine the effect of acarbose on TG activity, glucoamylase (one DU) containing TG (40 TG units, vide infra) was treated with different concentrations of acarbose and then incubated with maltose (10%), at pH 4.8, and 37° C. for one hour. The enzyme reaction was then terminated by heating the reaction mixture in a boiling water bath for 15 minutes and transglucosidase activity was determined by measuring, using liquid chromatography, the amount of panose produced during the reaction period. […] In these experiments, panose was routinely measured by a high pressure liquid chromatography procedure which separated this compound from glucose and maltose. Alternative procedures for specific determination of panose can be used equally well.
# (§2) It is recognized that the inhibition of glucoamylase or acarbose and the measurement of transglucosidase activity may equally well be conducted under different conditions. In order to work at such alternative conditions, it is necessary to determine the effect of a range of acarbose concentrations under the conditions selected, and in this way to identify a level of acarbose sufficient to give complete inhibition of glucoamylase without inhibiting transglucosidase activity.
# ^a one unit of glucoamylase was present in the reaction mixture.
# [3] = target: transglucosidase (Aspergillus niger, UniProt P56526); assay: Effect of acarbose on transglucosidase activity (panose produced from maltose, in presence of glucoamylase); format: biochemical; conditions: for amount of panose produced: maltose 10%, pH 4.8, 37° C., one hour; for Inhibition (%) transglucosidase: 40 units of transglucosidase
# From the text: as §1, §2
# ^b 40 units of transglucosidase were present in the reaction mixture.
# [4] = acarbose 1.25 μg/DU glucoamylase
# [5] = acarbose 2.5 μg/DU glucoamylase
# [6] = acarbose 100 μg/DU glucoamylase
# [7] = acarbose 200 μg/DU glucoamylase
# [8] = acarbose 300 μg/DU glucoamylase
# [9] = acarbose 400 μg/DU glucoamylase
# [10] = acarbose 500 μg/DU glucoamylase
# [11] = acarbose 600 μg/DU glucoamylase
# [12] = acarbose 800 μg/DU glucoamylase
# [13] = acarbose 1000 μg/DU glucoamylase
# [14] = acarbose 2000 μg/DU glucoamylase
# Sequence of transglucosidase (P56526 26-266): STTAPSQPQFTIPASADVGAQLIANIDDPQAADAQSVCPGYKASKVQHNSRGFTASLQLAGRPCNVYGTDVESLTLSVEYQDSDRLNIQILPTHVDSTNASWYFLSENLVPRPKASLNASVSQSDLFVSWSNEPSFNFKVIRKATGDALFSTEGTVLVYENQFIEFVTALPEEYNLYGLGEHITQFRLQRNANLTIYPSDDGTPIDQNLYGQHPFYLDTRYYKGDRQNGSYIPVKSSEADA
# Sequence of transglucosidase (P56526 267-985): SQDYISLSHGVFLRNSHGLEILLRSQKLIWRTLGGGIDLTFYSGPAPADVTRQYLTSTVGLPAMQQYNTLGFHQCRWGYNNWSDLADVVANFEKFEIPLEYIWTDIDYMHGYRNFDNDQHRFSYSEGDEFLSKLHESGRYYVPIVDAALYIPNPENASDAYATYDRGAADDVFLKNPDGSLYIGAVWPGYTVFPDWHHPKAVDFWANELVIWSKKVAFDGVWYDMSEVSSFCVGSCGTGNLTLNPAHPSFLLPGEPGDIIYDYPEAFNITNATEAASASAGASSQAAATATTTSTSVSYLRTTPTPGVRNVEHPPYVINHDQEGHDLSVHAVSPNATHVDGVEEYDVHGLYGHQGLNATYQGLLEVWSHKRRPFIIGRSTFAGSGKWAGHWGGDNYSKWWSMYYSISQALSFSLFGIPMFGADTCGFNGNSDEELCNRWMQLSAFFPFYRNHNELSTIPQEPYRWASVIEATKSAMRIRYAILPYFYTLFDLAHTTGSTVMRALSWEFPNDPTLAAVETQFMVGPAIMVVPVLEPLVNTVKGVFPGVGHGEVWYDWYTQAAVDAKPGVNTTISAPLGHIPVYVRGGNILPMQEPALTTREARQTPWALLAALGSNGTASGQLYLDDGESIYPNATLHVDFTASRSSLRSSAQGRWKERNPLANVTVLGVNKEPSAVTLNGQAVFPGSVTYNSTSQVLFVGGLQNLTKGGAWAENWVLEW
# Sequence of glucoamylase (P69328 25-640): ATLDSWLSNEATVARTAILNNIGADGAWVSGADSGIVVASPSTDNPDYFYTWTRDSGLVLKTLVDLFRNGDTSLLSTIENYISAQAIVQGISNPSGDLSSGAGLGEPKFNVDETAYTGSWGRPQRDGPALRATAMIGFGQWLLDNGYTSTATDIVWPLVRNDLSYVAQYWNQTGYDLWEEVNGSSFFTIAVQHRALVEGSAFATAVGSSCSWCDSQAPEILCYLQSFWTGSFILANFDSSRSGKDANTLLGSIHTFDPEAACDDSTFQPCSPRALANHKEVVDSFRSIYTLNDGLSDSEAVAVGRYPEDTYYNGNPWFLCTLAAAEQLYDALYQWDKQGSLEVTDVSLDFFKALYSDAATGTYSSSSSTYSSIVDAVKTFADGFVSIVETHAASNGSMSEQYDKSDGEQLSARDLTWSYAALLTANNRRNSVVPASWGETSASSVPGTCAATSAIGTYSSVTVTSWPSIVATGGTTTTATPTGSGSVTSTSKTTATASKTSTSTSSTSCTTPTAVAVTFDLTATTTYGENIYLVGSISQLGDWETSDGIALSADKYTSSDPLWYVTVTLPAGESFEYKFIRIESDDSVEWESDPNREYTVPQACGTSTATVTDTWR
smiles,measurement,setting,value
C[C@H]1O[C@H](O[C@H]2[C@H](O)[C@@H](O)[C@@H](O[C@H]3[C@H](O)[C@@H](O)C(O)O[C@@H]3CO)O[C@@H]2CO)[C@H](O)[C@@H](O)[C@@H]1N[C@H]1C=C(CO)[C@@H](O)[C@H](O)[C@H]1O (stereo partly shown) [acarbose],inhibition of amylolytic enzymes,[1],inhibitor of amylolytic enzymes
same,inhibition of glucoamylase activity,"[2]; 50 μg acarbose per DU enzyme and above, maltose 10%, pH 4.2, 37° C.",100%
same,Inhibition (%) glucoamylase,[2]; [4],23%
same,Inhibition (%) glucoamylase,[2]; [5],36%
same,Inhibition (%) glucoamylase,[2]; acarbose 5 μg/DU glucoamylase,65%
same,Inhibition (%) glucoamylase,[2]; acarbose 10 μg/DU glucoamylase,86%
same,Inhibition (%) glucoamylase,[2]; acarbose 15 μg/DU glucoamylase,91%
same,Inhibition (%) glucoamylase,[2]; acarbose 20 μg/DU glucoamylase,95%
same,Inhibition (%) glucoamylase,[2]; acarbose 30 μg/DU glucoamylase,97%
same,Inhibition (%) glucoamylase,[2]; acarbose 40 μg/DU glucoamylase,98%
same,Inhibition (%) glucoamylase,[2]; acarbose 50 μg/DU glucoamylase,100%
same,Inhibition (%) glucoamylase,[2]; [6],100%
same,Inhibition (%) glucoamylase,[2]; [7],100%
same,Inhibition (%) glucoamylase,[2]; [8],100%
same,Inhibition (%) glucoamylase,[2]; [9],100%
same,Inhibition (%) glucoamylase,[2]; [10],100%
same,Inhibition (%) glucoamylase,[2]; [11],100%
same,Inhibition (%) glucoamylase,[2]; [12],100%
same,Inhibition (%) glucoamylase,[2]; [13],100%
same,Inhibition (%) glucoamylase,[2]; [14],100%
same,inhibition of glucoamylase activity,[2]; acarbose 50-500 μg/DU,completely inhibited
same,amount of panose produced,[3]; above 50 up to 500 μg acarbose per DU of glucoamylase,remained constant
same,Inhibition (%) transglucosidase,[3]; [4],0%
same,Inhibition (%) transglucosidase,[3]; [5],0%
same,Inhibition (%) transglucosidase,[3]; acarbose 5 μg/DU glucoamylase,0%
same,Inhibition (%) transglucosidase,[3]; acarbose 10 μg/DU glucoamylase,0%
same,Inhibition (%) transglucosidase,[3]; acarbose 15 μg/DU glucoamylase,0%
same,Inhibition (%) transglucosidase,[3]; acarbose 20 μg/DU glucoamylase,0%
same,Inhibition (%) transglucosidase,[3]; acarbose 30 μg/DU glucoamylase,0%
same,Inhibition (%) transglucosidase,[3]; acarbose 40 μg/DU glucoamylase,0%
same,Inhibition (%) transglucosidase,[3]; acarbose 50 μg/DU glucoamylase,0%
same,Inhibition (%) transglucosidase,[3]; [6],0%
same,Inhibition (%) transglucosidase,[3]; [7],0%
same,Inhibition (%) transglucosidase,[3]; [8],0%
same,Inhibition (%) transglucosidase,[3]; [9],0%
same,Inhibition (%) transglucosidase,[3]; [10],0%
same,Inhibition (%) transglucosidase,[3]; [11],6%
same,Inhibition (%) transglucosidase,[3]; [12],8%
same,Inhibition (%) transglucosidase,[3]; [13],12%
same,Inhibition (%) transglucosidase,[3]; [14],23%
same,inhibition of transglucosidase activity,[3]; acarbose 50-500 μg/DU,without there being any inhibition of transglucosidase activity
same,amount of panose produced,[3]; acarbose exceeding 500 μg/DU glucoamylase,"steady decrease in the amount of panose produced, indicating inhibition of TG"
same,amount of panose produced,[3]; up to 50 μg acarbose per DU of glucoamylase,increased with increasing levels of acarbose
